Marks after values point to notes of the source that are not given here.
What was measured:
Type in all cases: in vivo, humans
[1] = tested on: perception of non-sweet taste attributes (such as bitterness); test: Descriptive analysis (DA) panel: non-sweet taste attributes in lemon lime matrix (spider plots); settings: lemon-lime matrix sweetened with HFCS, pH 7
Method: The effect of the test compound on the perception of non-sweet taste attributes (such as bitterness) in a flavored aqueous environment, in the presence of carbohydrate sweeteners, was evaluated using a descriptive analysis methodology with a group of trained panelists, as follows. This occurred as part of DA assessment described previously in Example 3.
The trained panel was then used for a descriptive analysis assessment for Compound 2 and Compound 5 in lemon lime flavored matrix, sweetened with high fructose corn syrup (HFCS), at a test dose of 50 ppm and 20 ppm, respectively.
(§1) All control and variant samples were prepared as described in Example 3. Both control (flavored sweetener solutions without compound) and variant (flavored sweetener solutions with compound) samples were blinded and randomized. Samples were presented in monadic order and panelists were instructed to sip the sample, swirl it in their mouths and expectorate. A total of 7 attributes including sweet, bitter, sour, licorice and thickness were assessed for each sample. After each sample assessment, panelists performed a standard palate cleansing protocol, and observed an inter-sample interval time (ISI). All samples were evaluated at ambient temperatures.
Data was collected and exported electronically utilizing FIZZ sensory software. […]

[2] = tested on: perception of the sweet taste in a flavored aqueous environment; test: Descriptive analysis (DA) panel: sweetness enhancement in HFCS sweetened lemon lime matrix; settings: for Fold enhancement of sweetness perception as compared to control sample: vs negative control; for Perceived sweetness (spider plot, vs control sweetener solution): lemon-lime matrix sweetened with HFCS, pH 7
Method: The effect of the test compound on the perception of the sweet taste in a flavored aqueous environment, in the presence of carbohydrate sweeteners, was evaluated using a descriptive analysis methodology with a group of trained panelists, as follows.
The panel used in this example was trained to reference sweet attributes in an absolute manner, such that a particular concentration of sweetener is always measured by the panelists at the same point using a 15 cm line scale where each cm represents a 1% increase in sucrose to cover the range of 0% to 15% sucrose. For the rest of the attributes, the panel was trained using a hybrid approach between descriptive analysis methods well-known to those skilled in the art.
The trained panel was then used for a descriptive analysis assessment for Compound 2 and Compound 5 in flavored lemon lime matrix. Compound 2 was assessed at a dose of 50 ppm and Compound 5 was assessed at a dose of 20 ppm for sweetness enhancement in high fructose corn syrup (HFCS) sweetened lemon lime matrix.
The flavored sweetener solutions were prepared by adding sucrose equivalent quantities of HFCS (by weight), to lemon lime matrix to achieve the desired concentration. Compound was first prepared as a 500-fold concentrated stock solution in 100% ethanol. The concentrated stocks were then added to the flavored sweetener solutions to result in a final ethanol concentration of 0.2%. The control (positive and negative) samples were also normalized to 0.2% ethanol. This level of ethanol was not seen to contribute any perceived sweetness
as §1, with “Both” for “All control and variant samples were prepared as described in Example 3. Both”, “sample. For the sweet attribute, panelists made an absolute scoring on a 15 cm line scale where each cm represents a 1% increase in sucrose to cover the range of 0% to 15% sucrose.” for “sample.”
Data was collected and exported electronically utilizing FIZZ sensory software. Data analysis was conducted using SENPAQ version 5.0 software that uses tools such as ANOVA, Fisher's LSD, correlation to determine panel performance as well as significant differences between samples and attributes.
The letter “a” indicates significant differences among the samples at 95% confidence level. Fold enhancement (increase in perceived sweetness) was calculated by dividing the DA panel average intensity score observed for a variant sample by that observed for the negative control sample.

[3] = tested on: perception of sweet taste of high fructose cornsyrup (HFCS); test: 2AFC assessment of increase in perceived sweetness of HFCS solution; settings: for Compound concentration with positive 2AFC results: in 5brix HFCS test sample; for Fold increase in perceived sweetness: positive control concentration surpassed divided by test sample concentration (5brix HFCS), approximate; for Sweetener Concentration of positive control surpassed by test sample: test sample 5brix HFCS plus compound, 2AFC sip and spit, panelists n≧15
Method: Effect of test compounds on the perception of sweet taste of high fructose cornsyrup (HFCS) two-alternative forced choice method (2AFC). The effect of the test compounds on the perception of the sweet taste of an aqueous solution of sweetener in humans was evaluated using a two-alternative forced choice “sip and spit” method (2AFC). The aqueous sweetener solutions were prepared by adding sucrose equivalent (SE) quantities of high fructose corn syrup (HFCS) (by weight), to water to achieve the desired concentration. The aqueous solutions ranged in pH from pH 2.5-pH 7. Compounds of the invention were first prepared as a 500-fold concentrated stock solution in 100% ethanol. These concentrated stocks were then added to the aqueous sweetener solutions to result in a final ethanol concentration of 0.2%. The control (positive and negative) samples were also normalized to 0.2% ethanol. This level of ethanol was not seen to contribute any perceived sweetness. The 2AFC test used for compound evaluation was a double blinded and randomized test where taste panelists (n≧15) evaluate a pair of sweetener solutions at a time—one sample contains aqueous sweetener solution plus compound (i.e. test) while the other contains aqueous sweetener solution at higher concentration without compound (i.e. positive control). Each test sample was compared against a positive control. For example, if the test sample contained 1× sweetener concentration with compound (e.g. 5brix HFCS with compound), the positive control sample contained a 1.1× sweetener concentration (e.g. 5.5brix HFCS without compound). […] Panelists were instructed not to eat or drink (except water) for at least 1 hour before the test. During the test, panelists were instructed to sip each sample, swirl it around their mouth and then expectorate. After tasting each sample in the pair, panelists were instructed to record the sample that is “sweeter” in taste. Panelists cleansed their palates by rinsing with water, eating a cracker and waiting for an interval of about 5 minutes. All samples were tasted at ambient temperatures. Data were analyzed using binomial probabilities. Approximate levels of sweetness enhancement in column 5 of Table 2 were calculated as follows: Approximate levels of sweetness enhancement=Sweetener concentration of positive control surpassed by the test sample, divided by sweetener concentration for compound-containing sample (e.g.1.3×=6.5brix HFCS/5brix HFCS).

[4] = Compound 2 @ 50 ppm in 7.7brix HFCS lemon lime matrix
[5] = Compound 5 @ 20 ppm in 6.67brix HFCS lemon lime matrix

Compound	Other attributes including astringent, licorice and bitter (spider plot, vs control) [1]	Average Sweetness Intensity Score w/ ANOVA (on 15 cm scale) [2, 4]	Fold enhancement of sweetness perception as compared to control sample [2, 4] [X]	Perceived sweetness (spider plot, vs control sweetener solution) [2]	Compound concentration with positive 2AFC results [3] [ppm]	Fold increase in perceived sweetness [3] [X]	Sweetener Concentration of positive control surpassed by test sample [3] [brix HFCS]	Average Sweetness Intensity Score w/ ANOVA (on 15 cm scale) [2, 5]	Fold enhancement of sweetness perception as compared to control sample [2, 5] [X]
COc1ccc([C@@H]2CCc3ccc(O)c(C)c3O2)cc1O [Compound 2, (S)-2-(3-hydroxy-4-methoxyphenyl)-8-methylchroman-7-ol]	observed to be significant	10.3^a	1.43	significant increase in perceived sweetness	50	>1.3	6.5		
COc1ccc(C2CCc3cc(C)c(O)cc3O2)cc1O (racemic) [Compound 4, 2-(3-hydroxy-4-methoxyphenyl)-6-methylchroman-7-ol]					20	>1.3	6.5		
COc1ccc(C2CCc3cc(C)c(O)cc3O2)cc1O (single isomer, unassigned; (-)) [Compound 5, (−)-2-(3-hydroxy-4-methoxyphenyl)-6-methylchroman-7-ol]	observed to be significant			significant increase in perceived sweetness	20	>1.5	7.5	9.7^a	1.47
COc1ccc(C2CCc3ccc(O)c(C)c3O2)cc1O (racemic) [Compound 1, 2-(3-hydroxy-4-methoxyphenyl)-8-methylchroman-7-ol]					35	>1.2	6		

Source: patent publication US20170303574A1, “COMPOUNDS, COMPOSITIONS, AND METHODS FOR MODULATING SWEET TASTE” (Chromocell Corporation, priority 2014, published 2017)
